The source of these data is patent publication US8188080B2 (Sanford-Burnham Medical Research Institute, priority 2007, dated 2012).

One may read the IC50 as the concentration that inhibits the measured activity by half.

Like-named read-outs stand apart in the source and are kept apart here.

For test [1], the target named is T1, VHR (Homo sapiens, UniProt P51452). The test can be described thus: Inhibition constant and inhibition pattern (Lineweaver-Burk plot). The class given is biochemical. Particulars: FIG. 1. The method, then: Using the same format and buffer system as for […] measurements, the enzyme was preincubated with various fixed concentrations of inhibitors for 10 minutes. The reaction was initiated by addition of various concentrations of DiFMUP (ranging from 0.2 to 10 km) to the reaction mixture. The initial rate was determined using a FLx800 micro plate reader (Bio-Tek Instruments, Inc.), and exitation wave length of 360 nm and measuring the emission of the fluorescent reaction product DiFMU at 460 nm. The nonenzymatic hydrolysis of the substrate was corrected by measuring the control without addition of enzyme. The inhibition constant and inhibition pattern was evaluated by fitting the data to the Michaelis-Menten equations for either competitive, uncompetitive or mixed inhibition, using nonlinear regression and the program GraphPad Prism™.
T1 sequence (P51452 whole entry): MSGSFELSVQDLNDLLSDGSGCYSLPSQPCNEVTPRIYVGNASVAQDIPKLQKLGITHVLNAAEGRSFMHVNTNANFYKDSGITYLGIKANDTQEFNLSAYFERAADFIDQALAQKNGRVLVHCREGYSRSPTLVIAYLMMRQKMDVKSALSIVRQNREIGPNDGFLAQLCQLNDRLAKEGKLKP

Test [2] addresses T1, VHR. The test can be described thus: PTP-catalyzed hydrolysis of DiFMUP, IC50 determination (VHR). The test is classed as biochemical. To be noted: read-out: IC50. The method, then:
The PTP-catalyzed hydrolysis of 6,8-difluoro-4-methylumbelliferyl phosphate (DiFMUP) in the presence of the test compound is assayed at 30° C. in a 60 μL 96 well format reaction system in 0.15 M Bis-Tris, pH 6.0 assay buffer having an ionic strength of 150 mM (adjusted with NaCl) and containing 1 mM dithiotreitol and 5% DMSO. At various concentrations of the compound, the initial rate at fixed DiFMUP concentration (equal to the corresponding Km value for each PTP) was determined using a FLx800 micro plate reader (Bio-Tek Instruments, Inc.), an excitation wave length of 360 nm and measuring the emission of the fluorescent reaction product 6,8-difluoro-7-hydroxy-4-methylcoumarin (DiFMU) at 460 nm. The nonenzymatic hydrolysis of the substrate was corrected by measuring the control without addition of enzyme. The IC50 value was determined by plotting the relative activity versus inhibitor concentrations and fitting to Equation 1 using the software GraphPad Prism™ (GraphPad Software, Inc.).
[formula] In this case, Vi, is the reaction velocity when the inhibitor concentration is [I], V0 is the reaction velocity with no inhibitor and IC50=Ki+Ki[S]/Km.

The target of the next test is HIV-1 protease (Human immunodeficiency virus type 1 group M subtype B, UniProt P04585). Particulars: cited from earlier work.
In another test the target is T2, heparanase (Homo sapiens, UniProt Q9Y251).
T2 sequence (Q9Y251 158-543 limits assumed): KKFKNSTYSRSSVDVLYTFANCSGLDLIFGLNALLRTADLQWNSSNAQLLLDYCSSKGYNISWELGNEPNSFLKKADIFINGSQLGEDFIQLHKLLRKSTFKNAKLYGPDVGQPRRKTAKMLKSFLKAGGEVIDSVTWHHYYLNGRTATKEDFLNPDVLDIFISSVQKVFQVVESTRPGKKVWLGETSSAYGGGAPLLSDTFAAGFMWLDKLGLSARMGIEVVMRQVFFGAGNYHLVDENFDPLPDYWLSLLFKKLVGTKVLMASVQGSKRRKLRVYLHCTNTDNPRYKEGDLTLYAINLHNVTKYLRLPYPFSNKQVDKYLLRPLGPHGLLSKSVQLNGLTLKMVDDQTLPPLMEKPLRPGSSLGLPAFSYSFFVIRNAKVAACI
T2 sequence (Q9Y251 36-109 partner limits assumed): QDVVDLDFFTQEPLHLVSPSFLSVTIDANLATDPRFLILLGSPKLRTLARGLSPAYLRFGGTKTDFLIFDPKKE
To be noted: cited from earlier work.

Another test concerns Ball-1 cells. Particulars: in vitro, arrest at G1/S transition; cited from earlier work.
The next test deals with phospholipase A2. Particulars: cited from earlier work.

With `O=C1/C(=C/C=C/c2ccccc2)SC(=S)N1CCS(=O)(=O)O` [2-[(Z)-4-oxo-5-((E)-3-phenylallylidene)-2-thioxothiazolidin-3-yl]ethane-sulfonic acid], the “inhibition pattern of VHR” value at VHR [1] is recorded as “competitive inhibition”.
As to `CCOc1cc(/C=C2\SC(=S)N(CCS(=O)(=O)O)C2=O)ccc1O` [Compound 1, (Z)-2-[5-(3-Ethoxy-4-hydroxybenzylidene)-4-oxo-2-thioxothiazolidin-3-yl)ethansulfonic acid], at VHR [2], the IC50 worked out at 50 µM.
On the same count and under the same terms, as for `O=C1/C(=C/c2ccc(Cl)cc2Cl)SC(=S)N1CCS(=O)(=O)O` [Compound 2, (Z)-2-[5-(2,4-Dichlorobenzylidene)-4-oxo-2-thioxothiazolidin-3-yl)ethansulfonic acid], the figure is 9.81 µM.
Still for that read-out and setting: as for `O=C(CN1C(=O)C(/C=C2\SC(=S)N(CCS(=O)(=O)O)C2=O)c2ccccc21)Nc1ccc(F)cc1` (stereo not drawn) [Compound 4], the figure is 12 µM.
On to `CCCCCCCCCCCCCCCC(=O)C1=C(O)C(CO)OC1=O` (stereo not drawn) [RK-682], for which the HIV-1 protease inhibition entry at HIV-1 protease was “HIV-1 protease inhibition”. Besides, at heparanase, the heparanase inhibition result was “heparanase inhibition”. Moreover, in the test with Ball-1 cells, the cell cycle progression entry is “inhibited cell cycle progression”. The “phospholipase A2 inhibition” value in the test on phospholipase A2 is listed as “phospholipase A2 inhibition”.
For “(Z)-2-[5-(5-bromo-1-methyl-2-oxoindolin-3-ylidene)-4-oxo-2-thioxothiazolindin-3-yl]ethanesulfonic acid [Compound 3]”, the IC50 on VHR [2] (Table I, DiFMUP at Km, pH 6.0, 30° C.) stood at 32.6 µM.
